How the values were obtained:
[1] = system: HeLa cells; type: cell-based, human; conditions: chloroquine 10 μM
[2] = system: Cos-7 cells; type: cell-based, monkey
[3] = system: J774 cells; type: cell-based

CCN(CC)CCCC(C)Nc1ccnc2cc(Cl)ccc12 (stereo not shown) [Chloroquine]
effect on Bcl-xL-DTR inhibition of poliovirus-induced cell death [1]: did not block the activity of Bcl-xL-DTR to inhibit poliovirus-induced cell death

brefeldin A
effect on anti-apoptosis activity of Bcl-xL-DTR [2]: does block the anti-apoptosis activity of Bcl-xL-DTR

CN[C@@H]1C[C@H]2O[C@@](C)([C@@H]1OC)n1c3ccccc3c3c4c(c5c6ccccc6n2c5c31)C(=O)NC4 [STS, staurosporine]
apoptosis induced in J774 cells [3]: died by apoptosis over the following 36 hours
Cell death (%) [2]: 24%
